Peptide text beside a SMILES is read from it.

In general, inhibition refers to the share of the control response that was lost under treatment. A high value points to a response far below the control.

The assay concerns the target T1, Tyrosinase (Homo sapiens) (UniProt P14679).
T1 sequence (whole entry): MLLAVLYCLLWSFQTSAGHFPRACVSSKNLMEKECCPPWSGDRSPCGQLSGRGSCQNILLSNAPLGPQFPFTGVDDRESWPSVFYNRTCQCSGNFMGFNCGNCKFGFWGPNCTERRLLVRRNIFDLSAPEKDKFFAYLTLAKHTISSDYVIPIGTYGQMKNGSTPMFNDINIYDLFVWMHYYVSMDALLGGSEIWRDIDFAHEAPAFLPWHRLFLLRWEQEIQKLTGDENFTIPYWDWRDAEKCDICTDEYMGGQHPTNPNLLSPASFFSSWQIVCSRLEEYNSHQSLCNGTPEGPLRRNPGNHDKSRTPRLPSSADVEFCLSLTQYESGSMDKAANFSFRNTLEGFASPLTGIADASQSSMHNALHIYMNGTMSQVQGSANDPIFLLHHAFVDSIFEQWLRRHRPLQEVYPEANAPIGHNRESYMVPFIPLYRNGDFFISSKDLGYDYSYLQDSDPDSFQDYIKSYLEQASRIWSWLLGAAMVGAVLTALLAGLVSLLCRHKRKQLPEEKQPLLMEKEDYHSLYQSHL
Put plainly: Inhibition of tyrosinase at 800 uM by dopachrome method.

With `CC(C)C[C@@H]1NC(=O)[C@@H]2CCCN2C(=O)[C@H]([C@@H](C)O)NC(=O)[C@@H]2CCCN2C(=O)[C@H]([C@@H](C)O)NC(=O)CNC(=O)[C@H](Cc2ccccc2)NC(=O)[C@H](Cc2ccccc2)NC1=O` (cyclo(FFGTPTPL)), the inhibition was determined as 15%.

The values are drawn from ChEMBL document CHEMBL1159263, “Cyclic peptides from higher plants, Part 15. Pseudostellarin H, a new cyclic octapeptide from Pseudostellaria heterophylla” (J Nat Prod, 1995).
